Laboratory results from publication PMC3934827 (Neuropharmacology, 2014).
Where two headings read alike, the source gives them in different places.

Columns and labels:
psychotic symptoms = settings: ref DeMartinis, 2012, cited from earlier work
stability and balance = assay: Perch test; assay type: in vivo, Rhesus monkeys (Macaca mulatta); settings: MP-10 0.21 or 0.67 mg/kg s.c.
[1] = tested on: parkinsonian motor effects; assay: Standardized motor disability scale for parkinsonian primates; assay type: in vivo, Rhesus monkeys (Macaca mulatta)
[2] = Plasma levels of MP-10 after subcutaneous administration; settings: rhesus monkey, sc
PDE10A = assay: Estimated PDE10A target occupancy; assay type: in vivo, Rhesus monkeys (Macaca mulatta); settings: calculated from Cp,u with IC50 1.0 nM
[3] = rat; ref Schmidt et al, 2008; cited from earlier work
[4] = tested on: cortical-, extrapyramidal motor- and autonomic-mediated functions; assay: Drug Effects on Nervous System
brain [18F] FDG uptake = assay: [18F] Fluorodeoxyglucose-PET imaging of brain; assay type: in vivo, Rhesus monkeys (Macaca mulatta)
[5] = tested on: finger dexterity / fast hand movements; assay: Klüver Board test; assay type: in vivo, Rhesus monkeys (Macaca mulatta)
[6] = tested on: blood-brain barrier efflux transporters; settings: ref Verhoest et al, 2009; cited from earlier work
[7] = mouse; ref Verhoest et al, 2009; cited from earlier work
D2 receptor = settings: ref Olsen et al., 2008; cited from earlier work
[8] = MP-10 0.67 and 1.33 mg/kg s.c., p < 0.001
[9] = MP-10 doses up to 0.21 mg/kg s.c.
[10] = risperidone 0.032 and 0.1 mg/kg s.c.

Cn1cc(-c2ccncc2)c(-c2ccc(OCc3ccc4ccccc4n3)cc2)n1 [MP-10, 2-[4-(1-methyl-4-pyridin-4-yl-1H-pyrazol-3-yl)-phenoxymethyl]-quinoline]
primary endpoint: reduction in psychotic symptoms (psychotic symptoms; Phase 2A trial NCT01175135): did not meet the primary endpoint | adverse effects in Phase 2A trial (psychotic symptoms): sedation and side effects consistent with target engagement | Perch test performance (stability and balance): did not show any compromise | Perch test scores before and 90 min after injection (stability and balance): zero | global motor disability scores ([1]; MP-10 0.021, 0.067, or 0.21 mg/kg s.c., 3 hours after administration): no effect | social interaction ([1]; MP-10 0.67 and 1.33 mg/kg s.c., similar at both doses, p < 0.001): decrease in social interaction | impairment in hand movements [1, 8]: mild and similar at both doses | impairment in leg movements [1, 8]: mild and similar at both doses | mobility score [1, 8]: increased in a dose dependent fashion | posture score [1, 8]: increased in a dose dependent fashion | global motor disability scores ([1]; MP-10 0.67 and 1.33 mg/kg s.c., p < 0.001, 3 of the 4 monkeys): increase in global scores | Tmax [2]: 1 to 2 h | projected PDE10A target occupancy (PDE10A; 0.21 mg/kg s.c., 1 h): 16 ± 1% | projected PDE10A target occupancy (PDE10A; 0.21 mg/kg s.c., 2 h): 19 ± 3% | projected PDE10A target occupancy (PDE10A; 0.21 mg/kg s.c., 3 h): 17 ± 1% | projected PDE10A target occupancy (PDE10A; 0.67 mg/kg s.c., 1 h): 41 ± 5% | projected PDE10A target occupancy (PDE10A; 0.67 mg/kg s.c., 2 h): 47 ± 2% | projected PDE10A target occupancy (PDE10A; 0.67 mg/kg s.c., 3 h): 42 ± 3% | brain-to-plasma ratio (total brain-to-total plasma concentrations) [3]: ~ 0.9 | DENS attentiveness [4, 8]: decreased attentiveness | DENS involuntary movements [4, 8]: induced oral dyskinesias | DENS reactivity [4, 8]: decreased attentiveness and reactivity | total DENS scores [4, 8]: significant effects | DENS involuntary movements [4, 9]: no effect | DENS salivation ([4]; MP-10 s.c.): non-significant increases | SUV of [18F] FDG in striatal regions (pooled) vs vehicle (brain [18F] FDG uptake; MP-10 0.211 or 1.33 mg/kg s.c., p < 0.01, n=4): statistically significant increases | SUV of [18F] FDG in cortical regions (pooled) vs vehicle (brain [18F] FDG uptake; MP-10 0.211 or 1.33 mg/kg s.c., p < 0.02, n=4): statistically significant increases | FDG SUV in other brain regions relative to control (vehicle) (brain [18F] FDG uptake; two doses of MP-10 (0.21, 1.33 mg/kg s.c.)): No significant differences | Klüver board task performance ([5]; MP-10 0.67 and 1.33 mg/kg s.c.): failed to perform the task | Klüver board index of success [5, 9]: no effect | Klüver board action time ([5]; MP-10 doses up to 0.21 mg/kg s.c., 90 min after injection): no effect | substrate for blood-brain barrier efflux transporters [6]: no evidence that it is a substrate | brain-to-plasma ratio (total brain-to-total plasma concentrations) [7]: ~ 0.9

Cc1nc2n(c(=O)c1CCN1CCC(c3noc4cc(F)ccc34)CC1)CCCC2 [risperidone, reference compound]
motor disability scores (motor behavior) ([1]; risperidone 0.01 mg/kg s.c., 3 hours after administration): no effect | hand movement score, in comparison to MP-10 [1, 10]: greater, dose-dependent increases | leg movement score, in comparison to MP-10 [1, 10]: greater, dose-dependent increases | mobility score, in comparison to MP-10 [1, 10]: notably less effect | posture score, in comparison to MP-10 [1, 10]: roughly comparable increases | motor disability scores ([1]; risperidone 0.032 and 0.1 mg/kg s.c., dose- and time-dependent, p < 0.001): significant increases | behaviors scored using the DENS scale ([4]; risperidone 0.01 mg/kg s.c.): minimal effects | DENS involuntary movements ([4]; risperidone 0.032 mg/kg s.c., all monkeys): significant involuntary movements | intensity of involuntary movements ([4]; risperidone 0.1 mg/kg s.c. vs 0.032 mg/kg): further increased | DENS attentiveness, compared with MP-10 ([4]; risperidone s.c.): less impairment | DENS reactivity, compared with MP-10 ([4]; risperidone s.c.): less impairment | Klüver board action time, baseline vs 90 min ([5]; risperidone 0.01 mg/kg s.c.): No significant differences | Klüver board action time ([5]; risperidone 0.032 and 0.1 mg/kg s.c., at cut off): 60 s | D2 receptor TO at which antipsychotic efficacy is observed (D2 receptor): > 55%
